Entries after “also recorded” stand apart in the source; their conditions may differ.

Data set [1] deals with T1, porcine pancreatic lipase (PPL) (Sus scrofa, UniProt P00591).
T1 construct: purchased Sigma Aldrich Inc. (St. Louis, Mo.)
T1 sequence (P00591 1-450): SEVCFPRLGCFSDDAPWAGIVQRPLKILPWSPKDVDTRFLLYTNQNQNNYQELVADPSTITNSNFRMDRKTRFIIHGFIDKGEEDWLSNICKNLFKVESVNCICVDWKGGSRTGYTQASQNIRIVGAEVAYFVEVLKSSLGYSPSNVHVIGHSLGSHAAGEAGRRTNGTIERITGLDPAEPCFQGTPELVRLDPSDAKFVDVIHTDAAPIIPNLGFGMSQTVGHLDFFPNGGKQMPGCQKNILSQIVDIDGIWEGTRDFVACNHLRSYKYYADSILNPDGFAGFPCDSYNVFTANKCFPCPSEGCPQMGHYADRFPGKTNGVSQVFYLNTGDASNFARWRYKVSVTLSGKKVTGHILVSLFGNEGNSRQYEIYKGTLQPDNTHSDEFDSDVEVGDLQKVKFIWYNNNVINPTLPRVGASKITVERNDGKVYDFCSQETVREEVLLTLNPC
Nature of the data set: Enzymatic degradation of PS20 by PPL, 4.5 hour digestion, PS20 by RP-ELSD. It is filed as biochemical. Conditions: 0.02% PS20; 15 μg/mL PPL 4.5 hours; excipient 15% w/v (methionine 10 mg/mL). As to the method: Polysorbate concentration was determined using reverse phase ultra-performance liquid chromatography using evaporative light scattering detection (RP-ELSD). Samples were analyzed using an Agilent 1100 series high performance liquid chromatography system (HPLC) fitted with a Waters Oasis MAX cartridge column (20×2.1 mm, 30 μm particle size). The HPLC system was set up with a switching valve directing column flow-through to either waste or a Varian 380-LC evaporative light scattering detector set to 100° C. The mobile phases consisted of 2% formic acid in water (Pump A) and 2% formic acid in isopropanol (Pump B). The pump gradient was isocratic at 10% pump B during equilibration, linear to 20% pump B for 1 minute, isocratic at 20% pump B for 2.4 minutes, linear to 100% pump B for 0.1 minutes, isocratic at 100% pump B for 1.1 minutes, linear to 10% pump B for 0.1 minutes, and finally isocratic at 10% pump B for 1.9 minutes. The switching valve directed column flow-through to waste at the beginning of every injection, and then directed flow to the detector after 2.4 minutes until the end of the gradient. In order to quantitate the PS20 concentration, a standard curve was generated by injecting 20 μL of solutions containing between 0% w/v and 0.4% w/v PS20.
(§1) Several excipients were tested for their ability to protect PS20 against enzymatic hydrolysis including HP-α-CD, HP-β-CD, HP-γ-CD, SBE-β-CD, PVP, PEG 1500, sucrose, and methionine. Solutions of each excipient in pH 5.5 buffer were prepared containing a final concentration of 0.02% PS20 after enzyme addition. The concentration of HP-α-CD, HP-β-CD, HP-γ-CD, and SBE-β-CD in the excipient solutions was 106 mM. […] The remaining excipients (PVP, PEG 1500, sucrose) were added to 15% w/v to match the % w/v of HP-β-CD. Samples were digested with 15 μg/mL PPL enzyme for 4.5 hours at room temperature, followed by 30 minutes of heat inactivation at 85° C. Each sample was analyzed for PS20 concentration using high performance liquid chromatography with an inline evaporative light scattering detector. Samples were then placed at 5° C. overnight to allow for the formation of particles and were analyzed for visible and subvisible particles as described previously.
(§2) The effect of the HP-β-CD concentration at different PS20 concentrations on the enzymatic degradation of PS20 was assessed to identify optimal concentrations for inhibition of enzymatic PS20 degradation. To evaluate the dependence of PS20 degradation on HP-β-CD concentration, the PS20 content was determined using RP-ELSD for triplicate samples containing different HP-β-CD concentrations at various PS20 concentrations. Samples containing 0.005% (FIG. 14A), 0.02% (FIG. 14B), 0.1% (FIG. 14C), and 0.4% PS20 (FIG. 14D) were digested using 15 μg/mL of PPL enzyme for 4.5 hours at room temperature in protein-free samples containing no excipient (control), 0, 0.5, 5, and 15% (w/v) HP-β-CD. PPL was added to each of the treatment solutions at a ratio of 75 […], with an equivalent volume of buffer added to the control solutions to determine the effect of HP-β-CD to polysorbate ratio on enzymatic degradation. Digestion was stopped by heat inactivation in an 85° C. water bath for 30 minutes. Each sample was analyzed for PS20 concentration using high performance liquid chromatography with an inline evaporative light scattering detector as described above. Samples were then placed at 5° C. overnight to allow for the formation of particles and placed on ice during analysis for visible and subvisible particles as described above.

For data set [2], the target named is T1, porcine pancreatic lipase (PPL). Nature of the data set: Subvisible particle formation after PPL digestion of PS20 (HIAC). Conditions: 0.02% PS20; 15 μg/mL PPL 4.5 hours, then 5° C. overnight; excipient 15% w/v (methionine 10 mg/mL). It is filed as physicochemical. As to the method: Subvisible particles were measured using a HIAC 9703 particle counter equipped with an HRDL-150 detector and a 1 mL syringe. Performance of the instrument was verified with NIST-traceable 2 μm Polystyrene bead standards at 3000 counts/mL before each measurement session. The HIAC instrument was configured to a 10 mL/min flow rate, 0.1 mL tare volume, and 0.4 mL sample volume. The samples were analyzed using 4 runs of 0.4 mL sips, with the first run of each sample was discarded to prevent measurement error due to sample carryover. Results were reported as the average values for 1.4, 2, 5, 10, 15, and 25, 50 μm analysis filter sizes.
as §1, §2

On to `CSCC[C@H](N)C(=O)O` [methionine, reference compound], for which the “inhibitory effect on enzymatic PS20 degradation (in words)” value in data set [1] is “did not have an inhibitory effect”. For the same molecule, the “effect on SVP formation (in words)” value in data set [2] was “did not have an inhibitory effect”.

For “sulfobutyl ether β-cyclodextrin [SBE-β-CD]”, the “inhibitory effect on enzymatic PS20 degradation (in words)” value in data set [1] is “significant inhibitory effects; also recorded: able to prevent enzymatic degradation of PS20”. Moreover, the “effect on SVP formation (in words)” value in data set [2] was “significant inhibitory effects”.

Source of the values: patent US10933141B2, “Formulations with reduced degradation of polysorbate” (Genentech, Inc., priority 2015, dated 2021).
